Measured values reported in patent US6528049B2, “Bisexual attractants, aggregants and arrestants for adults and larvae of codling moth and other species of lepidoptera” (Trece, Inc., priority 1999, dated 2003).

What was measured:
male codling moth = test: Pheromone preference paired-trap test: pheromone alone vs pheromone + HPV; format: in vivo, Cydia pomonella; settings: for % of pheromone-alone capture (line under HPV + Pheromone value) / Male CM Captured, HPV + Pheromone Trap: ± SEM / Male CM Captured, HPV + Pheromone Trap ± SEM / Average % Change in ♂♂ CM Capture: Table 8; for Average % Change in ♂♂ CM Capture: average of four orchards
Description: Interaction of synthetic apple and pear odor blends, described above in Table 2, and their effect on the attractancy of synthetic pheromone to codling moth was also studied. For that purpose, series of paired-traps containing pheromone alone or pheromone in combination with synthetic host plant volatile blends were placed in walnut orchards.
Interaction of individual synthetic host plant volatiles or blends on the attractiveness of synthetic male pheromone to male codling moth administered in paired traps with pheromone alone or with pheromone and attractant 10 mg/red septum was also studied.
Pheromone traps (sticky wing traps, Trécé, Inc.,) were hung as pairs: a pheromone only baited-trap vs. a pheromone+HPV blend-baited trap. The two traps of a test pair were attached in close competitive proximity (120 cm apart) on a common hanger bar (PVC pipe). The paired-trap bars were hung 5-6 meters high on the outer canopies of trees. A single pair-trap was hung per tree and different replicate test trees were separated by five rows in a matrix through the orchard. Each pheromone trap was baited with ½ of a commercial pheromone-impregnated rubber septum (Trécé, Inc.). Septa were sectioned by a razor blade. The HPV blends evaporated from their own separate impregnated rubber septa containing 10 mg diluted in hexane/septum).
Tests were conducted in a Harley English walnut orchard. Tests spanned the entire two year seasons April-October with traps checked, males sexed, counted and removed every 2-7 days. Significant effect on pheromone trap capture were judged by paired tests either T-test or a nonparametric test.

codling moth = test: Trap capture with purified (2E,4E) and (2E,4Z) 2,4-decadienoic acid esters; format: in vivo, Cydia pomonella; settings: 1 mg dose/gray septum; four orchards; means of 21 trap checks
Procedure: In this study, test compounds were highly purified synthetic samples. The purities of the compounds are expressed as percentages. Individual traps were baited with 1 mg dose/gray septum; five replicate blocks in four orchards; means of 21 total trap checks.

| SMILES | % of pheromone-alone capture (line under HPV + Pheromone value) (male codling moth; Orchard #1) [%] | Male CM Captured, HPV + Pheromone Trap: ± SEM (male codling moth; Orchard #1, 10 mg/red septum) | % of pheromone-alone capture (line under HPV + Pheromone value) (male codling moth; Orchard #2) [%] | Male CM Captured, HPV + Pheromone Trap ± SEM (male codling moth; Orchard #2, 10 mg/red septum) | % of pheromone-alone capture (line under HPV + Pheromone value) (male codling moth; Orchard #3) [%] | Male CM Captured, HPV + Pheromone Trap: ± SEM (male codling moth; Orchard #3, 10 mg/red septum) | % of pheromone-alone capture (line under HPV + Pheromone value) (male codling moth; Orchard #4) [%] | Male CM Captured, HPV + Pheromone Trap: ± SEM (male codling moth; Orchard #4, 10 mg/red septum) | Average % Change in ♂♂ CM Capture (male codling moth) [%] | FEMALE CM Captured: ♂♂/trap/night ± SEM (codling moth) | MALE CM Captured: ♂♂/trap/night ± SEM (codling moth) | Total CM Captured: CM/trap/night ± SEM (codling moth) [CM/trap/night] | % Change (Ph+HPV/Phxl00) in Male CM Capture (male codling moth; Table 9) [%] | Impact of HPV Blend on Pheromone Attractancy to Male CM (male codling moth; Table 9) | Male CM Capture with Pheromone + HPV Blend: ♂♂/trap/night ± SEM (male codling moth; Table 9, 10 mg/red septum) |
| --- | --- | --- | --- | --- | --- | --- | --- | --- | --- | --- | --- | --- | --- | --- | --- |
| Cc1ccc(C(C)C)cc1 [para-Cymene] | 117 | 0.92 ± 0.20 ♂♂/trap/night | 102 | 1.39 ± 0.38 ♂♂/trap/night | 108 | 4.76 ± 0.82 ♂♂/trap/night | 136 | 4.27 ± 0.71 ♂♂/trap/night | 116 |  |  |  |  |  |  |
| CCCCC/C=C\C=C\C(=O)OCCC [n-Propyl (2E,4Z)-2,4-Decadienoate] |  |  |  |  |  |  |  |  |  | 1.12 ± 0.39 ♀♀/trap/night | 0.49 ± 0.14 ♂♂/trap/night | 1.61 ± 0.49 |  |  |  |
| CCCCC/C=C\C=C\C(=O)OCC [Ethyl (2E,4Z)-2,4-Decadienoate, #1 (95.3%)] |  |  |  |  |  |  |  |  |  |  | 1.67 ± 0.41 ♂♂/trap/night | 4.49 ± 1.29 |  |  |  |
| C=C1/C=C/[C@H](C(C)C)CC/C(C)=C/CC1 [Germacrene-D] |  |  |  |  |  |  |  |  |  |  |  |  | 109 | No Effect | 0.86 ± 0.19 ♂♂/trap/night |
| CCCCC/C=C\C=C\C(=O)OCCCCCC [Hexyl (2E,4Z)-2,4-Decadienoate (91. 6%), Hexyl (2E,4Z)-2,4-Decadienoate] |  |  |  |  |  |  |  |  |  | 0.36 ± 0.18 ♀♀/trap/night | 0.21 ± 0.09 ♂♂/trap/night | 0.57 ± 0.22 |  |  |  |
| CC(C)CCO [3-Methyl Butan-1-ol] | 118 | 1.29 ± 0.25 ♂♂/trap/night | 86 | 1.19 ± 0.22 ♂♂/trap/night | 95 | 2.82 ± 0.56 ♂♂/trap/night | 115 | 2.91 ± 0.49 ♂♂/trap/night | 104 |  |  |  |  |  |  |
| CCCCC/C=C/C=C/C(=O)OC [Methyl (2E,4E)-2,4-Decadienoate] |  |  |  |  |  |  |  |  |  | 0.04 ± 0.03 ♀♀/trap/night | 0.01 ± 0.01 ♂♂/trap/night | 0.05 ± 0.03 |  |  |  |
| CCCCO [Butan-1-ol] | 101 | 0.74 ± 0.17 ♂♂/trap/night | 117 | 2.73 ± 0.56 ♂♂/trap/night | 122 | 2.95 ± 0.43 ♂♂/trap/night | 96 | 2.96 ± 0.62 ♂♂/trap/night | 109 |  |  |  |  |  |  |
| C=C/C(C)=C/CC=C(C)C [(E)-β-Ocimene] | 135 | 1.40 ± 0.25 ♂♂/trap/night | 114 | 0.88 ± 0.17 ♂♂/trap/night | 102 | 2.38 ± 0.34 ♂♂/trap/night | 96 |  | 112 |  |  |  |  |  |  |
